Laboratory results reported in PMC12249711, “Comprehensive Evaluation of 1H-Isoindole-1,3(2H)-Dione Derivatives: Pharmacokinetic Studies and Analgesic Potential in Various Pain Models” (International Journal of Molecular Sciences, 2025).
Read-outs that look alike come from different tables or passages of the source.

Assays:
mice = experiment: Formalin test; type: in vivo, Albino Swiss mice; settings: vs vehicle; for Reduction of pain reaction (licking duration), neurogenic phase: phase I (0–5 min); for Reduction of pain response, inflammatory phase: phase II (15–30 min)
Description: The pain reaction was induced by intraplantar (i.pl.) injection of 20 μL of 2.5% formalin solution into the right hind paw of the mouse (n = 136). […] Time (in seconds) spent on licking or biting the injected hind paw in selected intervals, 0–5 min (neurogenic phase) and 15–30 min (inflammatory phase), was measured in each group and was an indicator of nociceptive behavior. The procedure was based on the method described by with some modifications by.

[1] = Pharmacokinetic study after single i.p. administration, serum and brain concentrations by LC-MS/MS, non-compartmental analysis; type: in vivo, Albino Swiss mice; settings: mice; for Kp: brain/serum, read-out: Kbrain/serum (brain/serum partitioning coefficient); for Kp / MRT / Tmax / half-life / k el / CL/F / Vd/F / AUC0-inf / AUC0–8h: 5 mg/kg i.p.; for half-life: read-out: t1/2(λz) half-life in the elimination phase (converted); for k el: read-out: λz (terminal elimination rate constant) (converted); for Vd/F: read-out: Vz/F
Description: The compounds F1, F2, F3, and F4 were suspended in a 1% Tween 80 solution in sterile water for injection and given to mice i.p. at a dose of 5 mg/kg (n = 3 per time point; all mice in procedure = 96) as a single injection at a volume of 10 mL/kg. At specific time points (5; 15; 30; 60; 120; 240; 360; and 480 min after compound administration), mice were sacrificed by decapitation under isoflurane (5%) anesthesia to harvest blood and brain for assays. After allowing the blood to coagulate for 20 min at room temperature, blood samples were centrifuged for 10 min at 8000 rpm (Eppendorf miniSpin centrifuge) to obtain serum. Moreover, brains were removed (at the same time point) from skulls and washed with 0.9% NaCl. The obtained serum and brains were stored at −80 °C until analysis.
Concentrations of compounds F1 to F4 in mice brains and serum were measured by the liquid chromatography tandem mass spectrometry (LC-MS/MS) method using a Sciex QTRAP 4500 triple quadrupole mass spectrometer coupled to an Excion LC AC HPLC system (both from Danaher Corporation, Washington, DC, USA). The brains were homogenized in distilled water at the ratio of 1:4 (w/v) with a tissue homogenizer ULTRA-TURRAX T10 basic (IKA, Königswinter, Germany). The stock solutions of analyzed compounds were prepared in methanol at the concentration of 1 mg/mL. For the preparation of calibration curves, working standard solutions were prepared in methanol by the serial dilution of the stock solution at the following concentrations: 0.005; 0.01; 0.1; 0.25; 0.5; 1; 2.5; 5; and 10 µg/mL. To prepare samples for the calibration curve, 45 μL of matrix (blank plasma or brain homogenate) was spiked with 5 μL of standard working solution at an appropriate concentration level and vortexed for 10 s. Brain homogenates or serum samples (50 µL) as well as calibration samples were deproteinized with 150 μL of 0.1% formic acid in acetonitrile with an addition of internal standard (valsartan), shaken for 10 min (IKA Vibrax VXR, Königswinter, Germany), and centrifuged for 5 min at a speed of 8000× g (Eppendorf miniSpin centrifuge, Hamburg, Germany). Then, brain or serum supernatants were transferred into the autosampler vials. The autosampler temperature was maintained at 15 °C and a sample volume of 1 μL was injected into the LC-MS/MS system.
Chromatographic separation was carried out on the Hypersil GoldTM C18 analytical column (2.1 × 50 mm, 3 µm, Thermo Scientific, Waltham, MA, USA) with the oven temperature set at 30 °C. The mobile phase containing 0.1% formic acid in acetonitrile and 0.1% formic acid in water was delivered at a flow rate of […] in the gradient mode. Electrospray ionization (ESI) in the positive ion mode was used for ion production. The tandem mass spectrometer was operated at unit resolution in the selected reaction monitoring mode (SRM), monitoring the transitions of the protonated molecular ions m/z 366 to 201 (CE = 40 eV) and m/z 366 to 160 (CE = 40 eV) for compound F1, m/z 396 to 190 (CE = 39 eV) and m/z 396 to 160 (CE = 49 eV) for compound F2, m/z 434 to 145 (CE = 95 eV) and m/z 434 to 160 (CE = 47 eV) for compound F3, and m/z 456 to 167 (CE = 27 eV) and m/z 456 to 152 (CE = 85 eV) for compound F4. The first pair was used as a quantifier and the second for the identity verification—qualifier. One pair (m/z 436 to 235; CE = 42 eV) was monitored for valsartan used as an internal standard. The mass spectrometric conditions were optimized by continuous infusion of the standard solutions at the rate of 7 μL/min using a Harvard infusion pump (Harvard Apparatus, Holliston, MA, USA). The ion source temperature was maintained at 450 °C and the ion spray voltage was set at 4500 V. The curtain gas (CUR) was set at 40 and the collision gas (CAD) at Medium. The calibration curves were constructed by plotting the ratio of the peak area of the studied compound to internal standard (IS) versus drug concentration and generated by weighted (1/x·x) linear regression analysis. […]

[2] = Albino Swiss, mouse, ip, serum, 5 min after 5 mg/kg i.p., read-out: Cmax (maximal concentration)
[3] = brain, 5 mg/kg i.p. single dose
[4] = serum, 5 mg/kg i.p. single dose

| Kp ([1]; Albino Swiss, mouse, ip) | MRT ([1]; Albino Swiss, mouse, ip, brain) | Tmax ([1]; Albino Swiss, mouse, ip, brain) | half-life ([1]; Albino Swiss, mouse, ip, brain) | k el ([1]; Albino Swiss, mouse, ip, brain) | Cmax [1, 2] | CL/F ([1]; Albino Swiss, mouse, ip, serum) | MRT ([1]; Albino Swiss, mouse, ip, serum) | Tmax ([1]; Albino Swiss, mouse, ip, serum) | Vd/F ([1]; Albino Swiss, mouse, ip, serum) | half-life ([1]; Albino Swiss, mouse, ip, serum) | k el ([1]; Albino Swiss, mouse, ip, serum) | AUC0-inf ([1]; brain) | AUC0–8h ([1]; brain) | Cmax [1, 3] | SMILES | Reduction of pain reaction (licking duration), neurogenic phase (mice; 5 mg/kg i.p.) | Reduction of pain reaction (licking duration), neurogenic phase (mice; 10 mg/kg i.p.) | Reduction of pain reaction (licking duration), neurogenic phase (mice; 20 mg/kg i.p.) | Reduction of pain response, inflammatory phase (mice; 10 mg/kg i.p.) | Reduction of pain response, inflammatory phase (mice; 20 mg/kg i.p.) | also measured |
| --- | --- | --- | --- | --- | --- | --- | --- | --- | --- | --- | --- | --- | --- | --- | --- | --- | --- | --- | --- | --- | --- |
| 1.77 | 81.6 min | 4.98 min | 54.6 min | 0.000211 s⁻¹ | 0.596 µg/mL | 23.7 L/h/kg | 79.2 min | 4.98 min | 32.6 L/kg | 57 min | 0.000203 s⁻¹ | 374.60 µg∙h/L(kg) | 368.04 µg∙h/L(kg) | 970 µg/L(kg) | O=C1c2ccccc2C(=O)N1CC(O)CN1CCN(c2ccccc2)CC1 (centres unmarked) [Compound F1] | did not attenuate the nociceptive response | 44.9% | 62.7% | 66% | 90% | Reduction of pain response, inflammatory phase (mice; 5 mg/kg i.p.): 37%; AUC0-inf ([1]; serum): 211.22 µg∙h/L(kg); AUC0–8h ([1]; serum): 205.95 µg∙h/L(kg); Cmax [1, 4]: 595.75 µg/L(kg) |
| 2.05 | 190 min | 15 min | 78.6 min | 0.000147 s⁻¹ | 0.21 µg/mL | 17.8 L/h/kg | 168 min | 4.98 min | 32.4 L/kg | 75.6 min | 0.000153 s⁻¹ | 573.90 µg∙h/L(kg) | 520.05 µg∙h/L(kg) | 202.25 µg/L(kg) | O=C1c2ccccc2C(=O)N1CC(O)CN1CCN(c2cccc(C(F)(F)F)c2)CC1 (centres unmarked) [Compound F3] | did not attenuate the nociceptive response | did not attenuate the nociceptive response | 41.6% | 57.5% | 80.9% | Reduction of pain response, inflammatory phase (mice; 5 mg/kg i.p.): 34.5%; AUC0-inf ([1]; serum): 280.26 µg∙h/L(kg); AUC0–8h ([1]; serum): 258.81 µg∙h/L(kg); Cmax [1, 4]: 210.25 µg/L(kg) |
| 1.62 | 97.8 min | 15 min | 46.8 min | 0.000247 s⁻¹ | 0.131 µg/mL | 48 L/h/kg | 88.2 min | 4.98 min | 55.8 L/kg | 48 min | 0.000239 s⁻¹ | 168.99 µg∙h/L(kg) | 164.50 µg∙h/L(kg) | 163.5 µg/L(kg) | O=C1c2ccccc2C(=O)N1CC(O)CN1CCN(C(c2ccccc2)c2ccccc2)CC1 (centres unmarked) [Compound F4] | did not attenuate the nociceptive response | did not attenuate the nociceptive response | 48.3% | 29.5% | 42% | AUC0-inf ([1]; serum): 104.12 µg∙h/L(kg); AUC0–8h ([1]; serum): 101.99 µg∙h/L(kg); Cmax [1, 4]: 130.58 µg/L(kg) |
| 0.79 | 84.6 min | 4.98 min | 54 min | 0.000214 s⁻¹ | 0.7 µg/mL | 16.8 L/h/kg | 68.4 min | 4.98 min | 18.2 L/kg | 45 min | 0.000256 s⁻¹ | 237.16 µg∙h/L(kg) | 230.83 µg∙h/L(kg) | 465.38 µg/L(kg) | COc1ccccc1N1CCN(CC(O)CN2C(=O)c3ccccc3C2=O)CC1 (centres unmarked) [Compound F2] | did not attenuate the nociceptive response | 44.6% | 53% | 73% | 87% | Reduction of pain response, inflammatory phase (mice; 5 mg/kg i.p.): 51%; AUC0-inf ([1]; serum): 298.26 µg∙h/L(kg); AUC0–8h ([1]; serum): 292.78 µg∙h/L(kg); Cmax [1, 4]: 699.75 µg/L(kg) |
